Patent US10760110B2, “Antibiotic testing and screening system” (priority 2017, dated 2020)
Read-outs that look alike come from different tables or passages of the source.

Assays:
[1] = test system: A. baumannii KW1 and its AdeR/AdeS mutants; experiment: Etest MIC, AdeABC overexpression via AdeR or AdeS mutation (Table 16); type: cell-based, Acinetobacter baumannii; settings: Acinetobacter baumannii
Source text: DNA fragments of the entire adeR, adeS, gyrA and parC along with their flanking regions were amplified from A. baumannii KW1 using PCR with specific primer pairs and then cloned into plasmid pUT-KB. The QuikChange site-directed mutagenesis kit (Stratagene) was used to generate mutations in the adeR, adeS, gyrA and parC genes in the plasmids using the methods described by the manufacturer. For homologous recombination, plasmids containing mutations in the adeR, adeS, gyrA or parC gene were transformed into E. coli S17-1 λpir^23 via electroporation and mobilized into A. baumannii KW1 via conjugation. Single-crossover strains were selected from Luria-Bertani (LB) plates supplemented with cefotaxime (1 μg/ml) and kanamycin ([…]), as the growth of non-A. baumannii contaminants is suppressed by cefotaxime (1 μg/ml). The kanamycin-resistant transconjugants were selected and the insertion of plasmids was verified via PCR. After incubation in 20 ml brain heart infusion (BHI) broth for 6 hours in the absence of kanamycin at 37° C., the fully grown cultures were spread onto LB plates supplemented with 10% sucrose. After the double crossover occurred, the sucrose-resistant and kanamycin-susceptible colonies were selected, and the gene mutations were confirmed via PCR.
(§1) The MICs of antibiotics were determined using the Etest (Biodisk AB, Sweden) according to the manufacturer's instructions. The MICs from the Etest, which fall between standard two-fold dilutions, were rounded up to the next highest two-fold value. The MICs of ceftazidime and cefotaxime against K. pneumoniae NVT1001 harbouring the pACYC177 plasmid with blaOXA-48 were further determined using a broth microdilution test according to the recommendations of the CLSI,^25 and the results were interpreted according to the breakpoints established by the CLSI in 2017.^25 Meanwhile, due to the lack of CLSI breakpoints in 2016 and 2017, the results for cephalothin were interpreted according to the breakpoints established by the CLSI in 2015,^26 and the results for moxifloxacin were interpreted according to the breakpoints established by the EUCAST in 2017.^27

[2] = test system: K. pneumoniae NVT1001 ΔramRΔompK35/36 mutant and its revertants; experiment: Etest MIC, ΔramRΔompK35/36 mutant and its revertants (Table 7); type: cell-based; settings: Klebsiella pneumoniae
[3] = test system: K. pneumoniae NVT1001 and its ΔompK35/36 and/or ΔramR mutants; experiment: Etest MIC, OmpK35/36 loss and AcrAB-TolC overexpression (ΔramR) strains (Table 6); type: cell-based, Klebsiella pneumoniae; settings: Klebsiella pneumoniae
How it was run: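 Etest MICs against K. pneumoniae NVT1001 and its ΔompK35/36 and/or ΔramR mutants, rounded up to the next two-fold value. For NVT1001 carrying pACYC177-blaOXA-48, ceftazidime and cefotaxime MICs by CLSI broth microdilution, interpreted with CLSI 2017 breakpoints.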

[4] = test system: K. pneumoniae NVT1001 and ΔramR strains with tet resistance gene plasmids; experiment: Etest MIC of tetracyclines, AcrAB-TolC overexpression (ΔramR) and/or tet resistance gene (Table 14); type: cell-based, Klebsiella pneumoniae; settings: for MIC: Klebsiella pneumoniae
Procedure: DNA fragments of the resistance genes along with their flanking regions were amplified from clinical plasmids via PCR with specific primer pairs. The resulting PCR fragments were digested and then cloned into the plasmid pACYC177 or pACYC184. The resulting plasmids were then transformed into K. pneumoniae strain NVT1001 via electroporation. The recombinant bacteria were plated onto LB agar plates containing kanamycin (50 mg/L) or chloramphenicol (50 mg/L), and the presence of the cloned gene was confirmed via PCR and DNA sequencing.
as §1

[5] = test system: A. baumannii KW1 strains with tet resistance gene plasmids; experiment: Etest MIC of tetracyclines, tet resistance gene (Table 20); type: cell-based, Acinetobacter baumannii; settings: for MIC: Acinetobacter baumannii
Procedure: DNA fragments of the resistance genes along with their flanking regions were amplified from clinical plasmids via PCR with specific primer pairs. The resulting PCR fragments were digested and then cloned into the plasmid pYMAb5 or pYMAb5Tc. The resulting plasmids were then transformed into A. baumannii KW1 via electroporation.
as §1

CN(C)c1cc(NC(=O)CNC(C)(C)C)c(O)c2c1C[C@H]1C[C@H]3[C@H](N(C)C)C(O)=C(C(N)=O)C(=O)[C@@]3(O)C(O)=C1C2=O [Tigecycline, tigecycline]
0.25 µg/mL: MIC ([1]; KW1, read-out: MIC)
1 µg/mL: MIC ([2]; ΔramRΔompK35/36::ramR revertant) | MIC ([2]; ΔramRΔompK35/36::ramR::ompK35/36 revertant) | MIC ([2]; ΔramRΔompK35/36::ramR::ompK35 revertant) | MIC ([2]; ΔramRΔompK35/36::ramR::ompK36 revertant) | MIC ([3]; WT, NVT1001, read-out: MIC) | MIC ([3]; Δ35, ΔompK35 mutant) | MIC ([3]; Δ35/36, ΔompK35/36 mutant) | MIC ([3]; Δ36, ΔompK36 mutant) | MIC ([4]; NVT1001, Tet(B) on pACYC177, read-out: MIC) | MIC ([4]; NVT1001, Tet(C) on pACYC177, read-out: MIC) | MIC ([4]; NVT1001, Tet(D) on pACYC177, read-out: MIC) | MIC ([4]; NVT1001, Tet(M) on pACYC177, read-out: MIC) | MIC ([4]; NVT1001, no supplemental plasmid, read-out: MIC) | MIC ([5]; KW1, Tet(A) on pYMAb5)
2 µg/mL: MIC ([1]; A94V mutant (AdeS)) | MIC ([1]; D20N mutant (AdeR)) | MIC ([1]; R152K mutant (AdeS))
8 fold: increase in the MIC ([4]; Tet(A) production) | increase in the MIC ([4]; {})
3 µg/mL: MIC ([1]; A91V mutant (AdeR)) | MIC ([1]; G30D mutant (AdeS)) | MIC ([1]; T153M mutant (AdeS))
0.38 µg/mL: MIC ([5]; KW1, Tet(B) on pYMAb5) | MIC ([5]; KW1, Tet(M) on pYMAb5) | MIC ([5]; KW1, no supplemental plasmid) | MIC ([5]; KW1 with shuttle vector pYMAb5)
no observable effects: effects on the MIC ([4]; production of Tet(B), Tet(C), Tet(D) or Tet(M), with or without ΔramR) | effects on the MIC ([5]; production of Tet(B) or Tet(M))
32 µg/mL: MIC ([4]; ΔramR, Tet(A) on pACYC177)
8 µg/mL: MIC ([2]; ΔramRΔompK35/36::ompK35/36 revertant) | MIC ([2]; ΔramRΔompK35/36::ompK35 revertant) | MIC ([2]; ΔramRΔompK35/36::ompK36 revertant) | MIC ([2]; ΔramRΔompK35/36 mutant) | MIC ([3]; ΔramR mutant) | MIC ([3]; ΔramRΔ35, ΔramRΔompK35 mutant) | MIC ([3]; ΔramRΔ35/36, ΔramRΔompK35/36 mutant) | MIC ([3]; ΔramRΔ36, ΔramRΔompK36 mutant) | MIC ([4]; NVT1001, Tet(A) on pACYC177, read-out: MIC) | MIC ([4]; ΔramR, Tet(B) on pACYC177) | MIC ([4]; ΔramR, Tet(C) on pACYC177) | MIC ([4]; ΔramR, Tet(D) on pACYC177) | MIC ([4]; ΔramR, Tet(M) on pACYC177) | MIC ([4]; ΔramR, no supplemental plasmid)
1.5 µg/mL: MIC ([1]; P116L mutant (AdeR))
